Species on record: Rattus norvegicus
Assay: DrugMatrix - Regimen: Daily Repeat
Type: toxicity, organism-based, Sprague-Dawley
Design: regimen Daily Repeat, gender Male, age 6-8 weeks
Conditions: in vivo, po, route oral GAVAGE, vehicle 100 % WATER; for ABSOLUTE BASOPHIL / ABSOLUTE EOSINOPHIL / ABSOLUTE LYMPHOCYTE / ABSOLUTE MONOCYTE / ABSOLUTE SEGMENTED NEUTROPHIL / BASOPHIL / EOSINOPHIL / ERYTHROCYTE COUNT / HEMATOCRIT / HEMOGLOBIN / LEUKOCYTE COUNT / LYMPHOCYTE / MEAN CORPUSCULAR HEMOGLOBIN / MEAN CORPUSCULAR HEMOGLOBIN CONCENTRATION / MEAN CORPUSCULAR VOLUME / MONOCYTE / NEUTROPHIL / NUCLEATED RED BLOOD CELLS / PLATELET COUNT: tissue Blood; for ALANINE AMINOTRANSFERASE / ALBUMIN / ALKALINE PHOSPHATASE / ASPARTATE AMINOTRANSFERASE / BLOOD UREA NITROGEN / CARBON DIOXIDE / CHLORIDE / CHOLESTEROL / CREATINE PHOSPHOKINASE / CREATININE / GLUCOSE / LACTATE DEHYDROGENASE / LIPASE / PHOSPHORUS / POTASSIUM / SODIUM / TOTAL BILIRUBIN / TOTAL PROTEIN / URIC ACID: tissue Plasma
[1] = 120 mg/kg, 72 h, dose level Low, time 3 day
[2] = 120 mg/kg, 120 h, dose level Low, time 5 day
[3] = 1200 mg/kg, 72 h, dose level High, time 3 day
[4] = 1200 mg/kg, 120 h, dose level High, time 5 day

Compound: O=C(O)CNCP(=O)(O)O [GLYPHOSATE]
- ABSOLUTE BASOPHIL [1]: 0 CELLS/uL
- ABSOLUTE EOSINOPHIL [1]: 153 CELLS/uL
- ABSOLUTE LYMPHOCYTE [1]: 11957 CELLS/uL
- ABSOLUTE MONOCYTE [1]: 0 CELLS/uL
- ABSOLUTE SEGMENTED NEUTROPHIL [1]: 890 CELLS/uL
- BASOPHIL [1]: 0%
- EOSINOPHIL [1]: 1.33%
- ERYTHROCYTE COUNT [1]: 5.56 x10E6/uL
- HEMATOCRIT [1]: 35.93%
- HEMOGLOBIN [1]: 13.4 G/DL
- LEUKOCYTE COUNT [1]: 13 x10E3/uL
- LYMPHOCYTE [1]: 92%
- MEAN CORPUSCULAR HEMOGLOBIN [1]: 24.1 pg
- MEAN CORPUSCULAR HEMOGLOBIN CONCENTRATION [1]: 37.3 G/DL
- MEAN CORPUSCULAR VOLUME [1]: 64.57 fL
- MONOCYTE [1]: 0%
- NEUTROPHIL [1]: 6.67%
- NUCLEATED RED BLOOD CELLS [1]: 0 /100WBC
- PLATELET COUNT [1]: 1067 x10E3/uL
- ALANINE AMINOTRANSFERASE [1]: 56 u/L
- ALBUMIN [1]: 4.13 G/DL
- ALKALINE PHOSPHATASE [1]: 286.67 u/L
- ASPARTATE AMINOTRANSFERASE [1]: 100.67 u/L
- BLOOD UREA NITROGEN [1]: 15 mg/dL
- CARBON DIOXIDE [1]: 24.67 mmol/L
- CHLORIDE [1]: 103.33 MEQ/L
- CHOLESTEROL [1]: 75 mg/dL
- CREATINE PHOSPHOKINASE [1]: 1135.33 u/L
- CREATININE [1]: 0.29 mg/dL
- GLUCOSE [1]: 198.67 mg/dL
- LACTATE DEHYDROGENASE [1]: 150.67 u/L
- LIPASE [1]: 8 u/L
- PHOSPHORUS [1]: 14.7 mg/dL
- POTASSIUM [1]: 6.43 MEQ/L
- SODIUM [1]: 145.93 MEQ/L
- TOTAL BILIRUBIN [1]: 0.27 mg/dL
- TOTAL PROTEIN [1]: 5.87 G/DL
- URIC ACID [1]: 1.73 mg/dL
- ABSOLUTE BASOPHIL [2]: 0 CELLS/uL
- ABSOLUTE EOSINOPHIL [2]: 327.33 CELLS/uL
- ABSOLUTE LYMPHOCYTE [2]: 13510 CELLS/uL
- ABSOLUTE MONOCYTE [2]: 0 CELLS/uL
- ABSOLUTE SEGMENTED NEUTROPHIL [2]: 1496 CELLS/uL
- BASOPHIL [2]: 0%
- EOSINOPHIL [2]: 2%
- ERYTHROCYTE COUNT [2]: 5.7 x10E6/uL
- HEMATOCRIT [2]: 34.73%
- HEMOGLOBIN [2]: 13.27 G/DL
- LEUKOCYTE COUNT [2]: 15.33 x10E3/uL
- LYMPHOCYTE [2]: 88.33%
- MEAN CORPUSCULAR HEMOGLOBIN [2]: 23.27 pg
- MEAN CORPUSCULAR HEMOGLOBIN CONCENTRATION [2]: 38.23 G/DL
- MEAN CORPUSCULAR VOLUME [2]: 60.93 fL
- MONOCYTE [2]: 0%
- NEUTROPHIL [2]: 9.67%
- NUCLEATED RED BLOOD CELLS [2]: 0 /100WBC
- PLATELET COUNT [2]: 1299.33 x10E3/uL
- ALANINE AMINOTRANSFERASE [2]: 51.33 u/L
- ALBUMIN [2]: 4.47 G/DL
- ALKALINE PHOSPHATASE [2]: 337.33 u/L
- ASPARTATE AMINOTRANSFERASE [2]: 87.33 u/L
- BLOOD UREA NITROGEN [2]: 15.67 mg/dL
- CARBON DIOXIDE [2]: 25 mmol/L
- CHLORIDE [2]: 103.67 MEQ/L
- CHOLESTEROL [2]: 64 mg/dL
- CREATINE PHOSPHOKINASE [2]: 252 u/L
- CREATININE [2]: 0.19 mg/dL
- GLUCOSE [2]: 168.33 mg/dL
- LACTATE DEHYDROGENASE [2]: 300.67 u/L
- LIPASE [2]: 8.67 u/L
- PHOSPHORUS [2]: 12.53 mg/dL
- POTASSIUM [2]: 6.55 MEQ/L
- SODIUM [2]: 145.77 MEQ/L
- TOTAL BILIRUBIN [2]: 0.13 mg/dL
- TOTAL PROTEIN [2]: 6.1 G/DL
- URIC ACID [2]: 1.9 mg/dL
- ABSOLUTE BASOPHIL [3]: 0 CELLS/uL
- ABSOLUTE EOSINOPHIL [3]: 430 CELLS/uL
- ABSOLUTE LYMPHOCYTE [3]: 12770 CELLS/uL
- ABSOLUTE MONOCYTE [3]: 0 CELLS/uL
- ABSOLUTE SEGMENTED NEUTROPHIL [3]: 3000 CELLS/uL
- BASOPHIL [3]: 0%
- EOSINOPHIL [3]: 2.67%
- ERYTHROCYTE COUNT [3]: 5.53 x10E6/uL
- HEMATOCRIT [3]: 35%
- HEMOGLOBIN [3]: 13.4 G/DL
- LEUKOCYTE COUNT [3]: 16.2 x10E3/uL
- LYMPHOCYTE [3]: 79.33%
- MEAN CORPUSCULAR HEMOGLOBIN [3]: 24.3 pg
- MEAN CORPUSCULAR HEMOGLOBIN CONCENTRATION [3]: 38.3 G/DL
- MEAN CORPUSCULAR VOLUME [3]: 63.37 fL
- MONOCYTE [3]: 0%
- NEUTROPHIL [3]: 18%
- NUCLEATED RED BLOOD CELLS [3]: 0 /100WBC
- PLATELET COUNT [3]: 1325.33 x10E3/uL
- ALANINE AMINOTRANSFERASE [3]: 51.33 u/L
- ALBUMIN [3]: 4.17 G/DL
- ALKALINE PHOSPHATASE [3]: 418.33 u/L
- ASPARTATE AMINOTRANSFERASE [3]: 78.33 u/L
- BLOOD UREA NITROGEN [3]: 15.33 mg/dL
- CARBON DIOXIDE [3]: 27.33 mmol/L
- CHLORIDE [3]: 101 MEQ/L
- CHOLESTEROL [3]: 60.33 mg/dL
- CREATINE PHOSPHOKINASE [3]: 226.67 u/L
- CREATININE [3]: 0.19 mg/dL
- GLUCOSE [3]: 167 mg/dL
- LACTATE DEHYDROGENASE [3]: 154.67 u/L
- LIPASE [3]: 8.67 u/L
- PHOSPHORUS [3]: 13.27 mg/dL
- POTASSIUM [3]: 6.4 MEQ/L
- SODIUM [3]: 145.67 MEQ/L
- TOTAL BILIRUBIN [3]: 0.1 mg/dL
- TOTAL PROTEIN [3]: 5.83 G/DL
- URIC ACID [3]: 1.47 mg/dL
- ABSOLUTE BASOPHIL [4]: 0 CELLS/uL
- ABSOLUTE EOSINOPHIL [4]: 318.67 CELLS/uL
- ABSOLUTE LYMPHOCYTE [4]: 13433.33 CELLS/uL
- ABSOLUTE MONOCYTE [4]: 0 CELLS/uL
- ABSOLUTE SEGMENTED NEUTROPHIL [4]: 2014.67 CELLS/uL
- BASOPHIL [4]: 0%
- EOSINOPHIL [4]: 2%
- ERYTHROCYTE COUNT [4]: 5.83 x10E6/uL
- HEMATOCRIT [4]: 36%
- HEMOGLOBIN [4]: 13.47 G/DL
- LEUKOCYTE COUNT [4]: 15.77 x10E3/uL
- LYMPHOCYTE [4]: 84.67%
- MEAN CORPUSCULAR HEMOGLOBIN [4]: 23.1 pg
- MEAN CORPUSCULAR HEMOGLOBIN CONCENTRATION [4]: 37.47 G/DL
- MEAN CORPUSCULAR VOLUME [4]: 61.7 fL
- MONOCYTE [4]: 0%
- NEUTROPHIL [4]: 13.33%
- NUCLEATED RED BLOOD CELLS [4]: 0 /100WBC
- PLATELET COUNT [4]: 1271.67 x10E3/uL
- ALANINE AMINOTRANSFERASE [4]: 65.33 u/L
- ALBUMIN [4]: 4.43 G/DL
- ALKALINE PHOSPHATASE [4]: 391.33 u/L
- ASPARTATE AMINOTRANSFERASE [4]: 82.33 u/L
- BLOOD UREA NITROGEN [4]: 16.33 mg/dL
- CARBON DIOXIDE [4]: 27.33 mmol/L
- CHLORIDE [4]: 102.67 MEQ/L
- CHOLESTEROL [4]: 68.67 mg/dL
- CREATINE PHOSPHOKINASE [4]: 204.33 u/L
- CREATININE [4]: 0.15 mg/dL
- GLUCOSE [4]: 177 mg/dL
- LACTATE DEHYDROGENASE [4]: 87 u/L
- LIPASE [4]: 9 u/L
- PHOSPHORUS [4]: 12.33 mg/dL
- POTASSIUM [4]: 6.56 MEQ/L
- SODIUM [4]: 147.4 MEQ/L
- TOTAL BILIRUBIN [4]: 0.13 mg/dL
- TOTAL PROTEIN [4]: 6.03 G/DL
- URIC ACID [4]: 1.9 mg/dL
